Data on 17 compounds can be found in ChEMBL document CHEMBL1147761, “Novel 1,3-dipropyl-8-(1-heteroarylmethyl-1H-pyrazol-4-yl)-xanthine derivatives as high affinity and selective A2B adenosine receptor antagonists” (Bioorg Med Chem Lett, 2006).

One series concerns the target T1, Adenosine receptor A3 (Homo sapiens, UniProt P0DMS8).
T1 sequence (P0DMS8 whole entry): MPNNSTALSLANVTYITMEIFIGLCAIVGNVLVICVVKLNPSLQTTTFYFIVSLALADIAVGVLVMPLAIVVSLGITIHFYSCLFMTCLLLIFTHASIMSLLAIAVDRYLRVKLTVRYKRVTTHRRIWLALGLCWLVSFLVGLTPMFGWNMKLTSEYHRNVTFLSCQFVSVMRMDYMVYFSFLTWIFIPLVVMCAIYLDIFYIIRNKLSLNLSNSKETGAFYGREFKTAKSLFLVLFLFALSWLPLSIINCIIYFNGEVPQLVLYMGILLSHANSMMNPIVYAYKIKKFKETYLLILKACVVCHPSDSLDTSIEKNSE
In words: Displacement of [125I]AB-MECA from Adenosine A3 receptor expressed in CHO cells. Format: cell-based.

In series [1] the target is Adenosine receptors; A2b & A3 (Homo sapiens) (UniProt P29275+P0DMS8). In words: Selectivity of adenosine A3 receptor over adenosine A2B receptor. Format: protein assay.
In series [2] the target is Adenosine receptors; A1 & A2b (Homo sapiens) (UniProt P30542+P29275). Description: Selectivity of adenosine A1 receptor over adenosine A2B receptor. It is filed as protein assay.
In the next series the target is T2, Adenosine receptor A2b (Homo sapiens, UniProt P29275).
T2 sequence (P29275 whole entry): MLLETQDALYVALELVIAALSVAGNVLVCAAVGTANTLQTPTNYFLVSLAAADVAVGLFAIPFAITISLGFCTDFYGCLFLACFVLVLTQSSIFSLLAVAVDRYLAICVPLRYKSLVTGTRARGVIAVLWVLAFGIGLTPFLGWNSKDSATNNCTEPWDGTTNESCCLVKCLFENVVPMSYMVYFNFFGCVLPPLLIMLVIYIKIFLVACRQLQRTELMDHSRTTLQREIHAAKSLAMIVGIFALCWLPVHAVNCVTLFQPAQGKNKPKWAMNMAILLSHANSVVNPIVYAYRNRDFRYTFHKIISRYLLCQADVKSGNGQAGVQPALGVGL
In words: Displacement of [3H]ZM-241385 from Adenosine A2B receptor expressed in HEK cells. Format: cell-based, HEK293.

Series [3] concerns the target Adenosine A2 receptor (Homo sapiens) (UniProt P29275+P29274). In words: Selectivity of adenosine A2A receptor over adenosine A2B receptor. It is filed as protein assay.
For another series, the target named is T3, Adenosine receptor A1 (Homo sapiens, UniProt P30542).
T3 sequence (P30542 whole entry): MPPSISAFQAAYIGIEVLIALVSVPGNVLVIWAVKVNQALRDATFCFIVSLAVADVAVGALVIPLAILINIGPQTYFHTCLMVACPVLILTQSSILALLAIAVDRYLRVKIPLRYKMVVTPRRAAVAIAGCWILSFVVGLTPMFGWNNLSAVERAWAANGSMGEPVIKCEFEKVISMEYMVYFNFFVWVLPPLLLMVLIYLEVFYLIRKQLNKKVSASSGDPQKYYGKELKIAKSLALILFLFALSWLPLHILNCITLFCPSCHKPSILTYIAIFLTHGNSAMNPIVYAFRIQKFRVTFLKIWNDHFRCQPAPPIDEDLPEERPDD
In words: Displacement of [3H]CPX from Adenosine A1 receptor expressed in CHO cells. It is filed as cell-based.

The target of a further series is Adenosine receptor A2a (Homo sapiens, UniProt P29274). In words: Displacement of [3H]ZM-241385 from Adenosine A2A receptor expressed in HEK cells. Format: cell-based, HEK293.
Series [4] in a line: Oral bioavailability in rat administered at 1 mg/kg. Format: ADME, organism-based. As to conditions: in vivo.
Series [5] in a line: Half life in rat administered at 1 mg/kg. Format: ADME, organism-based. Details: dose 1 mg/kg. Particulars: in vivo.
Series [6] in a line: AUC in rat administered at 1 mg/kg. Format: ADME, organism-based. Details: dose 1 mg/kg. Particulars: plasma.

Chain of Adenosine receptor A2a (P29274 whole entry): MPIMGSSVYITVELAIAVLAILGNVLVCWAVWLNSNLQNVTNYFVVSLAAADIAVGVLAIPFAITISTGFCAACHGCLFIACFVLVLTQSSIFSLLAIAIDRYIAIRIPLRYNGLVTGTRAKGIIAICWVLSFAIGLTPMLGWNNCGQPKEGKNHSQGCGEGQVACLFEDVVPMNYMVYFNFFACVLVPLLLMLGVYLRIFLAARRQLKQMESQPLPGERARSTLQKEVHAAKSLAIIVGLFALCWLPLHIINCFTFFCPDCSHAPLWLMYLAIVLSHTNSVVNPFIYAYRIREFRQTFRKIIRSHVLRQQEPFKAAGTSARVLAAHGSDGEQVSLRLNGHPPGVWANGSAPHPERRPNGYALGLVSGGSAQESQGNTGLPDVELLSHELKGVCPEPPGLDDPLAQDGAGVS
Chain of Adenosine A2 receptor (Homo sapiens) (P29274 whole entry, looked up, one chain of several): as the sequence (P29274 whole entry) above

With `CCCn1c(=O)c2nc(-c3cnn(Cc4nc(-c5ccccc5Cl)no4)c3)[nH]c2n(CCC)c1=O`, the Ki is 490 nM at Adenosine receptor A3, 19 nM on Adenosine receptor A2b, 2500 nM at Adenosine receptor A1 and 2.5 µM on Adenosine receptor A2a. Besides, the Ratio Ki in series [1] was found to be 25; in series [2], 130; in series [3], 130.

In the case of `CCCn1c(=O)c2nc(-c3cnn(Cc4noc(-c5ccc(Cl)cc5)n4)c3)[nH]c2n(CCC)c1=O`, the inhibition constant Ki is above 8300 nM at Adenosine receptor A3, 39 nM at Adenosine receptor A2b, 2900 nM at Adenosine receptor A1 and above 5 µM on Adenosine receptor A2a. In addition, the figures for the Ratio Ki in series [1], in series [2] and in series [3] were above 213, 74 and above 128, respectively.

Regarding `CCCn1c(=O)c2nc(-c3cnn(Cc4cc(-c5cccc(OC)c5)on4)c3)[nH]c2n(CCC)c1=O`, the inhibition constant (Ki) at Adenosine receptor A3 was above 5000 nM; on Adenosine receptor A2b, 131 nM; at Adenosine receptor A1 it was 3500 nM; at Adenosine receptor A2a, above 5 µM. The Ratio Ki in series [1] is above 38; in series [2], 27; in [3], above 38.

Consider `CCCn1c(=O)c2nc(-c3cnn(Cc4nc(-c5ccccc5C(F)(F)F)no4)c3)[nH]c2n(CCC)c1=O`, for which the inhibitory constant (Ki) on Adenosine receptor A3 is 340 nM; at Adenosine receptor A2b, 74 nM; on Adenosine receptor A1 it was 530 nM; on Adenosine receptor A2a, above 5 µM. The values for the Ratio Ki in series [1], in series [2] and in [3] were 4, 7 and above 67, respectively.

In the case of `CCCn1c(=O)c2[nH]c(-c3cnn(Cc4cc(-c5ccccc5)on4)c3)nc2n(CCC)c1=O`, the Ki on Adenosine receptor A3 was 1800 nM; at Adenosine receptor A2b, 14 nM; on Adenosine receptor A1, 1500 nM; at Adenosine receptor A2a, 0.42 µM. Besides, the Ratio Ki in [1] came out at 128; in series [2] it was 107; in [3] it was 30.

As to `CCCn1c(=O)c2nc(-c3cnn(Cc4noc(-c5ccccc5OC)n4)c3)[nH]c2n(CCC)c1=O`, the inhibition constant (Ki) was above 8300 nM at Adenosine receptor A3, 83 nM on Adenosine receptor A2b, 930 nM on Adenosine receptor A1 and 3.4 µM on Adenosine receptor A2a. Further, the values for the Ratio Ki in series [1], in series [2] and in series [3] were above 100, 11 and 40, respectively.

For the compound `CCCn1c(=O)c2nc(-c3cnn(Cc4noc(-c5cccc(Cl)c5)n4)c3)[nH]c2n(CCC)c1=O`, the inhibition constant (Ki) on Adenosine receptor A3 is 3000 nM; at Adenosine receptor A2b, 134 nM; on Adenosine receptor A1, 3000 nM; on Adenosine receptor A2a, above 5 µM. In addition, the Ratio Ki is 22 in [1], 22 in series [2] and above 37 in series [3].

`CCCn1c(=O)c2nc(-c3cnn(Cc4cc(-c5ccccc5C(F)(F)F)on4)c3)[nH]c2n(CCC)c1=O`: the Ki on Adenosine receptor A3 is 4200 nM; on Adenosine receptor A2b, 121 nM; on Adenosine receptor A1 it was 3700 nM; on Adenosine receptor A2a it was above 5 µM. Besides, the Ratio Ki in series [1] was 34; in series [2] it was 30; in series [3], above 41.

In the case of `CCCn1c(=O)c2nc(-c3cnn(Cc4cc(-c5cccc(Cl)c5)on4)c3)[nH]c2n(CCC)c1=O`, the Ki is 4400 nM at Adenosine receptor A3, 163 nM at Adenosine receptor A2b, 4600 nM on Adenosine receptor A1 and above 5 µM on Adenosine receptor A2a. The Ratio Ki is 27 in series [1], 28 in series [2] and above 30 in series [3].

Consider `CCCn1c(=O)c2[nH]c(-c3cnn(Cc4noc(-c5ccccc5)n4)c3)nc2n(CCC)c1=O`, for which the Ki at Adenosine receptor A3 was found to be 630 nM; at Adenosine receptor A2b, 21 nM; on Adenosine receptor A1 it was 1000 nM; on Adenosine receptor A2a, 1.8 µM. For the same compound, the Ratio Ki in series [1] turned out to be 30; in series [2] it was 47; in series [3] it was 85.

Turning to `CCCn1c(=O)c2nc(-c3cnn(Cc4noc(-c5ccc(OC)cc5)n4)c3)[nH]c2n(CCC)c1=O`, the Ki is 2300 nM on Adenosine receptor A3, 123 nM on Adenosine receptor A2b, 3900 nM on Adenosine receptor A1 and above 5 µM at Adenosine receptor A2a. Besides, the Ratio Ki in series [1] is 19; in series [2] it was 32; in series [3], above 40.

With `CCCn1c(=O)c2nc(-c3cnn(Cc4noc(-c5ccc(C(F)(F)F)cc5)n4)c3)[nH]c2n(CCC)c1=O`, the Ki was 1300 nM at Adenosine receptor A3, 21 nM at Adenosine receptor A2b, above 6000 nM on Adenosine receptor A1 and above 5 µM at Adenosine receptor A2a. The results for the Ratio Ki in series [1], in series [2] and in [3] were 61, above 285 and above 238, respectively.

Consider `CCCn1c(=O)c2nc(-c3cnn(Cc4nc(-c5ccccc5)no4)c3)[nH]c2n(CCC)c1=O`, for which the Ki on Adenosine receptor A3 was 480 nM; on Adenosine receptor A2b, 1 nM; on Adenosine receptor A1, 370 nM; on Adenosine receptor A2a it was 1.1 µM. Also, the values for the Ratio Ki in [1], in series [2] and in series [3] were 480, 370 and 1100, respectively.

In the case of `CCCn1c(=O)c2nc(-c3cnn(Cc4nc(-c5ccc(OC)cc5)no4)c3)[nH]c2n(CCC)c1=O`, the inhibition constant Ki at Adenosine receptor A3 was 1500 nM; on Adenosine receptor A2b, 106 nM; at Adenosine receptor A1 it was 3000 nM; on Adenosine receptor A2a, above 5 µM. Besides, the figures for the Ratio Ki in series [1], in [2] and in series [3] were 14, 28 and above 47, respectively.

For `CCCn1c(=O)c2nc(-c3cnn(Cc4nc(-c5ccc(Cl)cc5)no4)c3)[nH]c2n(CCC)c1=O`, the Ki at Adenosine receptor A3 was 400 nM; at Adenosine receptor A2b, 21 nM; at Adenosine receptor A1, 740 nM; on Adenosine receptor A2a, 1.8 µM. Besides, the results for the Ratio Ki in series [1], in [2] and in [3] were 19, 35 and 85, respectively. This compound had a bioavailability in [4] of 22%. For the same compound, in series [5], the half-life is 90 min. For the same compound, the AUC in series [6] was 2330 ng·h/mL.

In the case of `CCCn1c(=O)c2nc(-c3cnn(Cc4nc(-c5cccc(C(F)(F)F)c5)no4)c3)[nH]c2n(CCC)c1=O`, the Ki is 960 nM on Adenosine receptor A3, 42 nM on Adenosine receptor A2b, 3500 nM on Adenosine receptor A1 and above 5 µM at Adenosine receptor A2a. The values for the Ratio Ki in series [1], in [2] and in [3] were 22, 83 and above 119, respectively.

Turning to `CCCn1c(=O)c2[nH]c(-c3cnn(Cc4cc(-c5ccc(OC)cc5)on4)c3)nc2n(CCC)c1=O`, the Ki on Adenosine receptor A3 was 3000 nM; on Adenosine receptor A2b it was 63 nM; at Adenosine receptor A1 it was 2000 nM; on Adenosine receptor A2a it was above 5 µM.
